Measurements published in patent US20260293937A1, “SHRIMP FEED AND METHODS OF USE THEREOF” (Organicin Scientific, Inc., priority 2023, published 2026).
“And” between values parts separate entries of the source, which are not always exact repeats. Identical values can stand only once. No end group written: not given here.

Experiments:
pathogenic Vibrio = experiment: Minimum inhibitory concentration, all Vibrio species; format: cell-based; conditions: all species of Vibrio
Description: This Example describes the materials and methods, and results of a serial dilution experiment to determine the Minimum Inhibitory Concentration (MIC) of Nisin in reducing a concentration of pathogenic Vibrio.
On the day before the experiment, Vibrio stock were prepared by sterilizing an inoculation loop, cooling the product, and extracting cells. Such extract was incubated at 37° C. for 16 to 20 hours. The density of cells was normalized to a cell density of approximately 10^7 to 10^8 CFU/mL and 100 uL lawns were prepared at a cell density of about 10^6 to 10^7 CFU using sterile glass beads. Four lawns were made so that each Nisin dilution could be tested on two identical plates.
5 μL of two-fold dilutions (See Table 1, below) of Nisin (Immucell; 99% pure), or shrimp feed (without Nisin), citric acid, or DH20 negative controls, respectively, were spotted on the plates, which were incubated at 37° C. for 16 to 20 hours. The minimum inhibitory concentration was determined. In particular, plates were characterized based upon the presence (0) or absence (1) of Vibrio growth.

[1] = tested on: Vibrio parahaemolyticus (strain 13-028A/3); experiment: AHPND immersion challenge, feed-and-survival assay in shrimp; format: in vivo, Penaeus (Litopenaeus) vannamei; conditions: for Group Survival: positive control 35%; for % Survival: per tank; for Survivors: per tank of 20 shrimp
Description: This Example describes the materials, methods, and results of a feed-and-survival assay in shrimp treated with a composition of the disclosure, including the bacteriocin Nisin and shrimp feed.
Specific Pathogen Free (SPF) P. vannamei at an average weight of 1 g to 2 g, were obtained from a commercial shrimp producer and reared. A total of 300 shrimp were transferred into 15 90 L glass aquaria, each aquarium stocked with 20 shrimp.
Shrimp feed diets was prepared at X, 10X, and 100X (0.84 mg/g, 8.4 mg/g, and 84 mg/g Nisin, respectively) estimated concentrations of the bacteriocin Nisin. The bacteriocin additive was combined with a 40% protein commercial shrimp premix (Rangen Inc., Buhl, Idaho), carboxymethyl cellulose at a 3% inclusion rate, and up to 40% w/v water. Exemplary components of a typical 35% protein shrimp diet were wheat flour (35%), soybean meal (20%) and fishmeal (25%). The mixture was then cold-extruded through a meat grinder to produce a 3 mm diameter size pellet strand. The resulting feed strands were dried overnight at 40° C. and broken into appropriately-sized pellets. A total of 100 g of each diet was use for this study. In all three experimental groups a minimum of 9.324 g of Nisin was used to produce the respective feed conditions.
The negative and positive control tanks were fed Rangen's commercially pelleted shrimp diet without additive.
The commercially prepared shrimp diet from juvenile Penaeus (Litopenaeus) vannameia was prepared with a bacteriocin additive at three concentrations (0.84 mg/g, 8.4 mg/g, and 84 mg/g Nisin). Experimental shrimp were orally exposed for […] Vibrio parahaemolyticus, an agent which causes Acute Hepatopancreatic Necrosis Disease (AHPND) to determine if the feed additives (provided during and after exposure) would affect survival when compared to the group that was fed an untreated diet.
All tanks were covered to reduce the risk of mortality due to shrimp jumping out. Each group of tanks was outfitted with its own equipment (e.g., nets and buckets). Each tank contained sufficient aeration and was outfitted with a pre-conditioned biological filter. Water quality tests to characterize temperature, nitrite and total ammonia were performed on tanks weekly.
Nine tanks (three per Nisin concentration) were used to house shrimp that were fed the bacteriocin-containing diet, while three tanks were used to house shrimp fed the control diet without additive. In both cases, the shrimp were fed their respective diet, followed by the AHPND challenge. The challenge was provided on 7 days at 5% of body weight per tank. Three additional tanks were used as a negative control for environmental conditions and were used to house shrimp fed the control diet and not challenged with AHPND. Additionally, the negative control tanks were be fed before the AHPND challenged tanks to reduce the risk of cross contamination.
Each tank scheduled for the AHPND challenge was subjected to an immersion challenge. Tryptic Soy Broth +2% (TSB+) sodium chloride was inoculated with a consistently virulent strain of Vibrio parahaemolyticus (strain 13-028A/3), incubated for 18 hours, and added directly into each challenge tank. The bacterial suspension was added into each tank to achieve the bacterial density measured by optical density absorbance (OD600 nm) at approximately […].
Two animals were preserved in Davidson's AFA fixative prior to the start of the study to document the SPF health status of the population by histology.
All tanks were checked twice a day for dead or moribund animals. During the study, any mortalities were removed from the tank and frozen at −20° C. Up to two moribund animals from each diet group, including the positive control tanks, were preserved in Davidson's AFA fixative and processed for routine histology to confirm an AHPND infection (up to 12 P. vannamei processed for histology during the challenge period). […]

Nisin: Nisin (Immucell; 99% pure) in Example 1; bacteriocin Nisin in shrimp feed at 0.84, 8.4 and 84 mg/g in Example 2 (ITSISLCTPGCKTGALMGCNMKTATCHCSIHVSK; cysteine pairing not given here; also: lantibiotic, modifications not placed; UniProt P13068 24-57, looked up)
MIC compared with negative control (pathogenic Vibrio): significantly smaller MIC than the negative control
cumulative survival vs positive control group ([1]; 0.84 mg/g Nisin in feed): statistically significant difference in cumulative survival
deaths pre-challenge ([1]; 0.84 mg/g Nisin in feed): 4
increase in relative survival of AHPND-challenged shrimp ([1]; 0.84 mg/g Nisin in feed vs positive controls, statistically significant): 265%
survival of AHPND-challenged shrimp ([1]; 0.84 mg/g Nisin in feed, pre-challenge deaths excluded, positive controls 35%): 100%
survival rate vs positive controls ([1]; 8.4 mg/g Nisin in feed): significantly higher than the positive controls
deaths ([1]; 84 mg/g Nisin in feed): not a single death
survival vs positive controls ([1]; 84 mg/g Nisin in feed): statistically significant as compared to the positive controls
Mortalities by Day ([1]; 1X (0.84 mg/g Nisin in feed), day 0, per tank): 0
Mortalities by Day ([1]; 1X (0.84 mg/g Nisin in feed), day 2, per tank): 0
Mortalities by Day ([1]; 1X (0.84 mg/g Nisin in feed), day 3, per tank): 0
Mortalities by Day ([1]; 1X (0.84 mg/g Nisin in feed), day 4, per tank): 0
Mortalities by Day ([1]; 1X (0.84 mg/g Nisin in feed), day 5, per tank): 0
Mortalities by Day ([1]; 1X (0.84 mg/g Nisin in feed), day 6, per tank): 0
Mortalities by Day ([1]; 1X (0.84 mg/g Nisin in feed), day 7, per tank): 0
Mortalities by Day ([1]; 1X (0.84 mg/g Nisin in feed), day 8, per tank): 0
Mortalities by Day ([1]; 1X (0.84 mg/g Nisin in feed), day 9, per tank): 0
Mortalities by Day ([1]; 1X (0.84 mg/g Nisin in feed), day 10, per tank): 0
Mortalities by Day ([1]; 1X (0.84 mg/g Nisin in feed), day 11, per tank): 0
Mortalities by Day ([1]; 1X (0.84 mg/g Nisin in feed), day 12, per tank): 0
Mortalities by Day ([1]; 1X (0.84 mg/g Nisin in feed), day 13, per tank): 0
Mortalities by Day ([1]; 1X (0.84 mg/g Nisin in feed), day 14, per tank): 0
Mortalities by Day ([1]; 1X (0.84 mg/g Nisin in feed), day 15, per tank): 0
Mortalities by Day ([1]; 1X (0.84 mg/g Nisin in feed), day 16, per tank): 0
Group Survival ([1]; 1X (0.84 mg/g Nisin in feed), overall): 93%
% Survival ([1]; 1X (0.84 mg/g Nisin in feed)): 95% and 90%
Survivors ([1]; 1X (0.84 mg/g Nisin in feed)): 19 and 18
Mortalities by Day ([1]; 10X (8.4 mg/g Nisin in feed), day 0, per tank): 0
Mortalities by Day ([1]; 10X (8.4 mg/g Nisin in feed), day 1, per tank): 0
Mortalities by Day ([1]; 10X (8.4 mg/g Nisin in feed), day 2, per tank): 0
Mortalities by Day ([1]; 10X (8.4 mg/g Nisin in feed), day 3, per tank): 0
Mortalities by Day ([1]; 10X (8.4 mg/g Nisin in feed), day 4, per tank): 0
Mortalities by Day ([1]; 10X (8.4 mg/g Nisin in feed), day 5, per tank): 0
Mortalities by Day ([1]; 10X (8.4 mg/g Nisin in feed), day 6, per tank): 0
Mortalities by Day ([1]; 10X (8.4 mg/g Nisin in feed), day 7, per tank): 0
Mortalities by Day ([1]; 10X (8.4 mg/g Nisin in feed), day 13, per tank): 0
Mortalities by Day ([1]; 10X (8.4 mg/g Nisin in feed), day 14, per tank): 0
Mortalities by Day ([1]; 10X (8.4 mg/g Nisin in feed), day 15, per tank): 0
Mortalities by Day ([1]; 10X (8.4 mg/g Nisin in feed), day 16, per tank): 0
% Survival ([1]; 10X (8.4 mg/g Nisin in feed)): 85% and 75% and 45%
Survivors ([1]; 10X (8.4 mg/g Nisin in feed)): 17 and 15 and 9
Group Survival ([1]; 10X (8.4 mg/g Nisin in feed)): 68%
Mortalities by Day ([1]; 100X (84 mg/g Nisin in feed), day 0, per tank): 0
Mortalities by Day ([1]; 100X (84 mg/g Nisin in feed), day 1, per tank): 0
Mortalities by Day ([1]; 100X (84 mg/g Nisin in feed), day 2, per tank): 0
Mortalities by Day ([1]; 100X (84 mg/g Nisin in feed), day 3, per tank): 0
Mortalities by Day ([1]; 100X (84 mg/g Nisin in feed), day 4, per tank): 0
Mortalities by Day ([1]; 100X (84 mg/g Nisin in feed), day 5, per tank): 0
Mortalities by Day ([1]; 100X (84 mg/g Nisin in feed), day 6, per tank): 0
Mortalities by Day ([1]; 100X (84 mg/g Nisin in feed), day 7, per tank): 0
Mortalities by Day ([1]; 100X (84 mg/g Nisin in feed), day 8, per tank): 0
Mortalities by Day ([1]; 100X (84 mg/g Nisin in feed), day 9, per tank): 0
Mortalities by Day ([1]; 100X (84 mg/g Nisin in feed), day 10, per tank): 0
Mortalities by Day ([1]; 100X (84 mg/g Nisin in feed), day 11, per tank): 0
Mortalities by Day ([1]; 100X (84 mg/g Nisin in feed), day 12, per tank): 0
Mortalities by Day ([1]; 100X (84 mg/g Nisin in feed), day 13, per tank): 0
Mortalities by Day ([1]; 100X (84 mg/g Nisin in feed), day 14, per tank): 0
Mortalities by Day ([1]; 100X (84 mg/g Nisin in feed), day 15, per tank): 0
Mortalities by Day ([1]; 100X (84 mg/g Nisin in feed), day 16, per tank): 0
% Survival ([1]; 100X (84 mg/g Nisin in feed)): 100%
Survivors ([1]; 100X (84 mg/g Nisin in feed)): 20
Group Survival ([1]; 100X (84 mg/g Nisin in feed)): 100%
shrimp survival ([1]; Nisin and shrimp feed, dose as low as 0.84 mg/g): significant increase in shrimp survival
